The values below come from US4591586A, “6-fluoro-3-[3-(1-heterocyclo)propyl]-1,2-benzisoxazoles for treatment of pain, hypertension and psychoses” (Hoechst-Roussel Pharmaceuticals, priority 1984, dated 1986).

Where a name gives a salt, the structure may show the parent alone. Read-outs that look alike come from different tables or passages of the source.

By ED50 is commonly meant the midpoint of the dose-response relation.

The subject of assay [1] is spontaneous hypertensive rat. Kind of assay: antihypertensive activity in the spontaneous hypertensive rat, indirect tail cuff method. Conditions: 50 mg/kg of body wt, oral, 3 days, measured on third day. In kind it is in vivo. The method, then: According to this procedure, the test compound is administered orally to a group of 5 rats for 3 days in relation to a control group of the same number. The decrease in blood pressure is measured on the third day of administration.

The subject of assay [2] is apomorphine-induced climbing. Description: climbing mice assay (block of apomorphine-induced climbing), antipsychotic activity. The conditions noted are these: Mus musculus, ip; for ED50: read-out: Antipsychotic Activity ED50 value (estimated dose for 50% decrease in climbing scores). In kind it is in vivo, mice (CK-1 male).
In assay [3] the test system is phenyl-para-quinone induced writhing. Description: phenyl-para-quinone writhing assay in mice (analgesia). Type of assay: in vivo. Conditions: for ED50: Mus musculus, read-out: Analgesic Activity ED50 (dose at which 50% of the phenyl-para-quinone induced writhing is inhibited). Background: In writhing tests, fewer writhes than in controls are read as antinociception.

Where [4] appears, read: mice, 10 mg/kg of body wt, intraperitoneal, 30 minutes prior to apomorphine 1.5 mg/kg s.c., read-out: Antipsychotic Activity (% decrease in climbing score).
The mark [5] stands for this setting: mice, at 20 mg/kg, subcutaneous.
[6] abbreviates: mice, intraperitoneal, 30 minutes prior to apomorphine 1.5 mg/kg s.c., linear regression.

As for `Fc1ccc2c(CCCN3CCC(Oc4ccc(Cl)cc4)CC3)noc2c1` [4-(4-Chlorophenoxy)-1-[3-(6-fluoro-1,2-benzisoxazol-3-yl)propyl]-piperidinehydrochloride], the “Blood Pressure Decrease (decrease in mean arterial blood pressure)” value (“Blood Pressure Decrease” for short) in assay [1] is given as 39 mm/mercury. On to `N=C(N)NCCN1CCCCCCC1` [guanethidine, reference compound], for which the “Blood Pressure Decrease” value in assay [1] was found to be 20 mm/mercury.

For `O=C(CCCN1CCC(O)(c2ccc(Cl)cc2)CC1)c1ccc(F)cc1` [haloperidol, reference compound], in assay [2], the ED50 was 0.11 mg/kg.

On to `Cl.Fc1ccc2c(CCCN3CCC(c4ccccc4)CC3)noc2c1` [1-[3-(6-Fluoro-1,2-benzisoxazol-3-yl)propyl]-4-phenylpiperidine hydrochloride], for which the ED50 in assay [3] (sc, mice, subcutaneous) was determined as 1 mg/kg. The inhibition in vivo at 10 mg/kg in assay [2] (setting [4]) worked out at 35%. On to `Fc1ccc2c(CCCN3CCCC3)noc2c1.O=C(O)C(=O)O` [1-[3-(6-Fluoro-1,2-benzisoxazol-3-yl)propyl]pyrrolidine oxalate], for which, in assay [3] (sc, mice, subcutaneous), the median effective dose (ED50) stood at 1.2 mg/kg. For the compound `CCC(=O)O[C@](Cc1ccccc1)(c1ccccc1)[C@H](C)CN(C)C` [propoxyphene, reference compound], the ED50 in assay [3] (sc) is 3.9 mg/kg. Take `Cl.O=C(c1ccc(F)cc1)C1CCN(CCCc2noc3cc(F)ccc23)CC1` [1-[3-(6-Fluoro-1,2-benzisoxazol-3-yl)propyl]-4-(4-fluorobenzoyl)piperidine hydrochloride]: the median effective dose (ED50) in assay [3] (sc, mice, subcutaneous) came to 0.8 mg/kg. The inhibition in vivo at 3 mg/kg in assay [2] (mice, 3 mg/kg of body wt, intraperitoneal, 30 minutes prior to apomorphine 1.5 mg/kg s.c., read-out: Antipsychotic Activity (% decrease in climbing score)) was found to be 91%. For `CC(O)C1(c2ccccc2)CCN(CCCc2noc3cc(F)ccc23)CC1` (centres unmarked) [1-[3-(6-Fluoro-1,2-benzisoxazol-3-yl)propyl]-4-(1-hydroxyethyl)-4-phenylpiperidine hydrochloride], in assay [2] (read-out: Antipsychotic Activity (% decrease in climbing score)), the inhibition in vivo at 10 mg/kg amounted to 41%.

Turning to `Fc1ccc2c(CCCN3CCCCCC3)noc2c1.O=C(O)C(=O)O` [1-[3-(6-Fluoro-1,2-benzisoxazol-3-yl)propyl]-2,3,4,5,6,7-hexahydroazepine oxalate], the ED50 in assay [3] (sc, mice, subcutaneous) was found to be 1.3 mg/kg. Also, in assay [2] (setting [4]), the inhibition in vivo at 10 mg/kg is 27%. As to `Cl.Fc1ccc2c(CCCN3CCC(Oc4ccc(Cl)c(Cl)c4)CC3)noc2c1` [1-[3-(6-Fluoro-1,2-benzisoxazol-3-yl)propyl]-4-(3,4-dichlorophenoxy)piperidine hydrochloride], the “percent decrease in writhing at a given dose” value (from here on “percent decrease in writhing”) in assay [3] (setting [5]) is on record as 49%. As to `Fc1ccc2c(CCCNN3CCCCC3)noc2c1` [6-Fluoro-3-{3-[N-(1-piperidino)aminopropyl}-1,2-benzisoxazole oxalate], in assay [3] (sc, mice, subcutaneous), the ED50 is 5 mg/kg. Further, the inhibition in vivo at 10 mg/kg in assay [2] (setting [4]) was 36%. Turning to `Cl.Fc1ccc2c(CCCN3CCC4(CC3)OCCO4)noc2c1` [8-[3-(6-Fluoro-1,2-benzisoxazol-3-yl)propyl]-1,4-dioxa-8-azaspiro[4,5]decane hydrochloride], the 50% effective dose (ED50) in assay [3] (sc, mice, subcutaneous) is 1.4 mg/kg; in assay [2] (setting [6]), 6.4 mg/kg. As for `CC(C)=CCN1CCC2(C)c3cc(O)ccc3CC1C2C` (centres unmarked) [pentazocine, reference compound], the ED50 in assay [3] (sc) stood at 1.3 mg/kg.

For the compound `Cl.Fc1ccc2c(CCCN3CCC(CCCc4ccccc4)CC3)noc2c1` [1-[3-(6-Fluoro-1,2-benzisoxazol-3-yl)propyl]-4-(3-phenylpropyl)piperidine hydrochloride], the “Blood Pressure Decrease” value in assay [1] is recorded as 40 mm/mercury. The inhibition in vivo at 10 mg/kg in assay [2] (setting [4]) turned out to be 25%.

Consider `CC(=O)C1(c2ccccc2)CCN(CCCc2noc3cc(F)ccc23)CC1.Cl` [4-Acetyl-1-[3-(6-fluoro-1,2-benzisoxazol-3-yl)propyl]-4-phenylpiperidine hydrochloride], for which the “percent decrease in writhing” value in assay [3] (mouse, in vivo, sc, 20 mg/kg) stood at 46%.

For the compound `Cl.Fc1ccc2c(CCCN3CCC(Oc4ccc(C(F)(F)F)cc4)CC3)noc2c1` [1-[3-(6-Fluoro-1,2-benzisoxazol-3-yl)propyl]-4-(4-trifluoromethylphenoxy)piperidine hydrochloride], the “Blood Pressure Decrease” value in assay [1] is on record as 35 mm/mercury. For `OC1CCN(CCCc2noc3cc(F)ccc23)CC1` [1-[3-(6-Fluoro-1,2-benzisoxazol-3-yl)propyl]-4-hydroxypiperidine], the “percent decrease in writhing” value in assay [3] (setting [5]) is given as 43%. Also, the ED50 in assay [2] (setting [6]) is 10.4 mg/kg. Take `Fc1ccc2c(CCCN3CCc4ccccc4C3)noc2c1` [2-[3-(6-Fluoro-1,2-benzisoxazol-3-yl)propyl]-1,2,3,4-tetrahydroisoquinolinehydrochloride]: the “percent decrease in writhing” value in assay [3] (setting [5]) is 69%. As for `Cl.Fc1ccc2c(CCCN3CCC(Cc4ccccc4)CC3)noc2c1` [4-Benzyl-1-[3-(6-fluoro-1,2-benzisoxazol-3-yl)propyl]piperidine hydrochloride], in assay [1], the “Blood Pressure Decrease” value came to 71 mm/mercury. The inhibition in vivo at 10 mg/kg in assay [2] (setting [4]) worked out at 29%. Take `Fc1ccc2c(CCCN3CCOCC3)noc2c1` [1-[3-(6-Fluoro-1,2-benzisoxazol-3-yl)propyl]morpholine oxalate]: the ED50 in assay [3] (sc, mice, subcutaneous) stood at 2.2 mg/kg. For `CSc1ccc2c(c1)N(CCC1CCCCN1C)c1ccccc1S2` (centres unmarked) [thioridazine, reference compound], in assay [2] (setting [6]), the median effective dose (ED50) is 3.5 mg/kg.

With `Cl.Fc1ccc2c(CCCN3CCC(Sc4ccccc4)CC3)noc2c1` [1-[3-(6-Fluoro-1,2-benzisoxazol-3-yl)propyl]-4-phenylthiopiperidine hydrochloride], the ED50 in assay [3] (sc, mice, subcutaneous) came out at 4.4 mg/kg. Further, the inhibition in vivo at 10 mg/kg in assay [2] (setting [4]) is 27%. Take `Cl.Fc1ccc2c(CCCN3CCCCC3)noc2c1` [1-[3-(6-Fluoro-1,2-benzisoxazol-3-yl)propyl]piperidine hydrochloride]: in assay [1], the “Blood Pressure Decrease” value stood at 30 mm/mercury. Besides, the median effective dose (ED50) in assay [3] (sc, mice, subcutaneous) came out at 0.6 mg/kg. For the compound `CC1CCN(CCCc2noc3cc(F)ccc23)CC1.Cl` [4-Methyl-1-[3-(6-fluoro-1,2-benzisoxazol-3-yl)propyl]piperidine hydrochloride], the “Blood Pressure Decrease” value in assay [1] was found to be 59 mm/mercury. Also, the 50% effective dose (ED50) in assay [2] (setting [6]) is 7.6 mg/kg. As for `O=C(NC1CCN(CCCc2noc3cc(F)ccc23)CC1)c1ccccc1` [4-Benzamido-1-[3-(6-fluoro-1,2-benzisoxazol-3-yl)propyl]-piperidine], the “Blood Pressure Decrease” value in assay [1] worked out at 44 mm/mercury. Further, the ED50 in assay [3] (sc, mice, subcutaneous) stood at 0.6 mg/kg. In addition, in assay [2] (setting [4]), the inhibition in vivo at 10 mg/kg was found to be 49%.
